# Measured values reported in article PMC5988692, “AZ304, a novel dual BRAF inhibitor, exerts anti-tumour effects in colorectal cancer independently of BRAF genetic status” (British Journal of Cancer, 2018).
# Read-outs that look alike come from different tables or passages of the source.
# What was measured:
# CDK2 = CDK2 (Homo sapiens, UniProt P24941); assay: AlphaScreen kinase assay (Rb peptide); assay type: biochemical; conditions: ATP Km
# Method: (§1) For RAF kinases, detailed assay information was described in ref.[18] Briefly, the kinase activity of BRAF WT, BRAF V600E, or CRAF was measured using an AlphaScreen assay (Perkin Elmer, MA) monitoring MEK1/2 phosphorylation at Ser217/221. For CDK2 and CDK4 kinases, activity was also measured by AlphaScreen, monitoring phosphorylation of biotin Rb peptide at Ser780. Similarly, MAP3K7, CSF1R and JAK2 kinase activity was measured by phosphorylation of their biotinylated substrates MKK6 kinase dead protein at Ser271/Thr275, or tyrosine phosphorylation of pEY or Tyk2 Tyr1054/1055 peptides, respectively. CSK, IGF1R, EGFR, FGFR1 and SRC kinase activity was measured using a sandwich ELISA detecting phosphorylated poly EAY peptide with a HRP conjugated phosphotyrosine antibody and TMB substrate, while p38 kinase activity was measured by monitoring phosphorylation of MBP protein with radiolabeled ^33P-ATP in a filter binding format. All assays were screened under respective ATP Km conditions and inhibitor IC50s were derived from either 5 (RAF kinases, CDK2, CDK4, MAP3K7, JAK2), 10 (CSK, IGF1R, EGFR, FGFR1, SRC) or 11 (p38, CSF1R) point compound dose response.
# CDK4 = CDK4 (Homo sapiens, UniProt P11802); assay: AlphaScreen kinase assay (Rb peptide); assay type: biochemical; conditions: ATP Km
# Method: as §1
# [1] = system: panel of human cancer cell lines with different BRAF and RAS genetic statuses; assay: Cell proliferation assay, ranges over the cell panel; assay type: cell-based; conditions: 72 h, 3 days, read-out: GI50 values, range
# Method: The proliferation assays against a cell panel were performed as described in ref.[18] Briefly, the cells were treated with DMSO or multiple concentrations of AZ304 for 3 days. The cell growth was determined using the CellTiter 96 Aqueous One Cell Proliferation Assay (Promega, Madison, WI). […] The assays were done in triplicate across different plates.
# Anti-proliferative activity of AZ304 against a panel of cell lines with different BRAF and RAS genetic status. […] Cell growth was determined by MTS assay.
# [2] = system: RKO, HT-29, DiFi and Caco-2 cells; assay: MTT assay with EGF stimulation; assay type: cell-based, human; conditions: four CRC cell lines, AZ304 + EGF (20 ng/ml) vs AZ304 alone, 72 h
# Method: The proliferation assays in selected colorectal cancer cell lines were measured using a 3-(4,5-dimethyl thiazol-2-yl)-2,5-diphenyl tetrazolium bromide (MTT) assay. First of all, cultured cells were seeded into 96-well plates (2000–5000 cells per well). After incubation for 24 h, the cells were pretreated with DMSO or AZ304 for 1 h. Then the indicated doses of Cetuximab were added. Cells were incubated for a further 48 or 72 h. For EGF stimulating assay, cells were incubated in reduced serum medium overnight and then treated with AZ304 or AZ304 + EGF (20 ng/ml) for 72 h. Twenty microliter of MTT solution (5 mg/ml) was added to each well followed by 4 h incubation at 37 °C. The cell culture medium was removed and the cells were lysed in 200 μl dimethylsulphoxide (DMSO) and the results were measured using a microplate reader (Model 550, Bio-Rad Laboratories, Hercules, CA, USA).
# Fig. 5 Anti-proliferative activity of AZ304 cannot be retained by EGF in CRC cell lines with different BRAF mutation status. a Two V600E mutant BRAF cell lines (RKO, HT-29) and two wild type BRAF cell lines (DiFi, Caco-2) were serum starved overnight and then treated with the indicated AZ304 or AZ304 + EGF for 72 h. […]
# p-ERK in A375 cells = assay: A375 p-ERK cellular assay; assay type: cell-based; conditions: Homo sapiens, A-375, 1.25 h; A375 (V600E mutant BRAF melanoma), 75 min; read-out: mean EC50, reduction of ERK phosphorylation (p-ERK)
# Method: A375 cells were seeded into 96-well micro plates (Costar, Corning, and Lowell, MA) at […] in phenol red free DMEM (Invitrogen, Carlsbad, CA) supplemented with 10% foetal bovine serum. After 48 h, the cells were treated with DMSO or multiple concentrations of AZ304 and then returned to the incubator for 75 min. Medium were then aspirated and cells were fixed with a 6% formaldehyde solution for 20 min at room temperature. Cells were washed once with PBS containing 0.05% Triton X-100 (PBST) and 0.6% hydrogen peroxide added for 20 min at room temperature. After washing again in PBST, cells were blocked with 10% FBS/PBST solution for 1 h at room temperature. After washing, p-ERK monoclonal antibody was added and the plates were placed at 4 °C for overnight. […] Quantification of signal was determined at OD405 using a SpectraMax plate reader (Molecular Devices, Sunnyvale, CA). […] EC50 was calculated using XLift.
# Cells were incubated with DMSO or AZ304 for 75 min and p-ERK levels were determined using a p-ERK antibody based ELISA. […] Cells were incubated with DMSO or AZ304 (±EGF) for 75 min and p-ERK levels were determined using a p-ERK antibody based ELISA. […]
# Sequence of CDK4 (P11802 whole entry, species assumed): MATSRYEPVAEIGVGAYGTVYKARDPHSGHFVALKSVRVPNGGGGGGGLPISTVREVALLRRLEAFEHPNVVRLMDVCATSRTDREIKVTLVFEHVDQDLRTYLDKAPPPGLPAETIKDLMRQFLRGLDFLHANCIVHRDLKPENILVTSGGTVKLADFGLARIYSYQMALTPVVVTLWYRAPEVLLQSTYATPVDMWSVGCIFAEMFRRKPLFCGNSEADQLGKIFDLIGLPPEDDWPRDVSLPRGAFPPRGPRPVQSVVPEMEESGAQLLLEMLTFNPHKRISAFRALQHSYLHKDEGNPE
# Sequence of CDK4 (P24385 whole entry partner, species assumed): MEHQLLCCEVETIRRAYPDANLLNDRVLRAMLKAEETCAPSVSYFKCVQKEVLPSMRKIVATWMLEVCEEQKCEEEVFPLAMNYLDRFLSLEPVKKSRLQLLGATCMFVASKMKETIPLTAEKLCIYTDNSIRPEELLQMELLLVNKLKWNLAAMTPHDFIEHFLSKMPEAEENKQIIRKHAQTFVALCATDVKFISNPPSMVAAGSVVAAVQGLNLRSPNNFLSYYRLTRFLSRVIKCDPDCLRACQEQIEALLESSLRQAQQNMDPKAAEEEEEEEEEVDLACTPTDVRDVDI
smiles,measurement,setting,value
COc1ccc2c(Nc3cc(NC(=O)c4cccc(C(C)(C)C#N)c4)ccc3C)ncnc2c1 [AZ304],IC50,CDK2,> 10 µM
same,IC50,CDK4,> 10 µM
same,GI50,[1]; mutant BRAF cell lines,0.08 to 7.72 µM
same,GI50,[1]; mutant RAS cell lines,0.9 to 16.7 µM
same,GI50,[1]; wild type BRAF/RAS cell lines,0.43 to 11.7 µM
same,change of anti-proliferative effects after combined treatment with EGF,[2],no significant reduction of anti-proliferative effects
same,EC50,p-ERK in A375 cells,0.065 µM
